Laboratory results published in patent US20260335314A1, “CRYSTALLINE SALTS OR AMORPHOUS FORMS OF 2-((1H-PYRAZOL-3-YL)METHYL)-6-((6-AMINOPYRIDIN-2-YL)METHYL)-4-METHYL-4,6-DIHYDRO -5H-THIAZOLO[5',4':4,5]PYRROLO[2,3-D]PYRIDAZIN-5-ONE” (Agios Pharmaceuticals, Inc., priority 2023, published 2026).

Tests used:
pH solubility in buffers = format: physicochemical; settings: for pH (24 h): pH of solution at 24 h
Method: (§1) Solubility samples were prepared by weighing about 10 mg of each salt and adding 1 mL of media and vortexed briefly to obtain suspensions. […] For such instances, the solubility is calculated as greater than (>).
(§2) The sample vials were capped and wrapped in aluminum foil, and placed on a shaker at 37° C. The shaker was set at about 100 rpm and vials were removed at specified time points. The vials were observed, and the supernatants were transferred to Eppendorf tubes and centrifuged at 3K for 10 minutes. The clear supernatants were transferred to HPLC vials. The samples were diluted prior to HPLC analysis using the dilution media by 2× or used without dilution. pH was measured of the 24 hour timepoint after centrifugation using a micro pH probe.
(§3) • pH 2 buffer USP: Mixed 50 mL of 0.2M potassium chloride and 13 mL 0.2M HCl, diluted to 200 mL with water. • pH 4.5 buffer USP: 5.44 g of potassium dihydrogen phosphate was diluted to 1000 mL with water. • pH 6.8 buffer USP: Mixed 50 mL of 0.2M potassium phosphate and 22.4 mL 0.2M sodium hydroxide. Diluted with water to 200 mL. • SGF: 2.0109 g of NaCl was dissolved in water, added 7 mL of conc. HCl and diluted to 1 L. • FeSSIF: 4.0321 g of NaOH and 11.8726 g of NaCl were dissolved in water, added 8.65 mL of glacial acetic acid, adjusted the pH to 5.0 and diluted to 1 L. • FaSSIF: 0.4247 g of NaOH, 3.9548 g of sodium phosphate monobasic monohydrate and 6.1900 g of NaCl were dissolved in water, adjusted the pH to 6.5 and diluted to 1 L.
At each time point, the solution was analyzed by HPLC and residue was vacuum dried and analyzed by XRPD. The pH of the solution was measured at 24 hours.

[1] = Dynamic vapor sorption (moisture uptake); format: physicochemical; settings: 25° C., from 5% to 95% relative humidity
Method: Dynamic Vapor Sorption (DVS) was carried out using a TA Instruments Q5000 Dynamic Vapor Sorption analyzer. The instrument was calibrated with standard weights and a sodium bromide standard for humidity. Approximately 10-25 mg of sample was loaded into a metal-coated quartz pan for analysis. […] The movement from one step to the next occurred either after satisfying the equilibrium criterion of 0.01% weight change or, if the equilibrium criterion was not met, after one hour. The percent weight change values were calculated using Microsoft Excel®.

[2] = Kinetic solubility in biorelevant media; format: physicochemical; settings: for solubility at 10 min / solubility at 0.5 h / solubility at 1 h / solubility at 2 h / solubility at 4 h / solubility at 24 h: 37 °C; for solubility at 0.5 h: 30 min
Method: as §1, §2
as §3, with “adjusted the pH to 5.0 and diluted to 1 L. • FaSSIF:” left out
Kinetic solubility was determined in biorelevant media. At each time point, the solution was analyzed by HPLC. The solid residue was analyzed by XRPD at selected time points. The pH of the solution was measured at 24 hours.

[3] = Pharmacokinetics / absolute bioavailability in male Sprague Dawley rats; format: in vivo; settings: oral gavage, 10 mg/kg
Method: Twenty-one (21) male Sprague Dawley rats (purchased from Shanghai Laboratory Animal Center Co., Ltd., Shanghai, China) were randomized into 7 groups (3 animals per group). The animals fasted overnight, the forms of Compound 1 shown in Table 7 were administered by oral gavage, and the animals were fed 4 hours post-dose.
Blood was serially collected from each animal at 0 (pre-dose), 0.083, 0.25, 0.5, 1, 2, 4, 8, and 24 h post-dose. For each collection, the animal was restrained manually, and approximately 150 μL of blood sample was collected via the tail vein into K2EDTA tubes. Plasma samples were stored at approximately −70° C. until analysis.
To enable the calculation of absolute bioavailability, Compound 1 was formulated as a solution in 10% N-methyl-2-pyrrolidone, 10% Solutol HS 15, and 80% saline and administered at 1 mg/kg as intravenous (IV) bolus dose to a separate group of male Sprague Dawley rats, and blood samples were collected at similar timepoints to those shown above. Further, plasma samples were obtained from the collected samples and stored at approximately −70° C. until analysis.
The concentration of Compound 1 in the plasma samples was determined by LC-MS/MS analysis.
A 20 μL aliquot of each plasma sample was mixed with 200 μL of acetonitrile containing glipizide as an internal standard (40 ng/mL). The resulting mixture was vortexed at 1500 rpm for 2 min and centrifuged at 5800 rpm for 10 min. A 1 μL sample from the supernatant was injected into LC-MS/MS.
LC-MS/MS analysis was conducted on a UPLC/MS-MS (API 6500+) system under the conditions outlined in Table 8
The absolute bioavailability of each form of Compound 1 was determined by dividing the AUCinf of the form in question by the AUCinf obtained historical data by IV administration of Compound 1.

[4] = ph 2 buffer (usp), pH 2, pH 2 (USP), 37 °C
[5] = ph 4.5 buffer (usp), pH 4.5, pH 4.5 (USP), 37 °C
[6] = ph 6.8 buffer (usp), pH 6.8, pH 6.8 (USP), 37 °C
[7] = fassif, pH 5, FaSSIF pH 5.0 (so in the source)
[8] = fessif, pH 6.5, FeSSIF pH 6.5 (so in the source)

In the case of `Cn1c2nc(Cc3cc[nH]n3)sc2c2cnn(Cc3cccc(N)n3)c(=O)c21.O=C(O)C(O)C(O)C(=O)O` (racemic) [Form C], the “dissolution in 0.1N HCl” value (pH solubility in buffers; 0.1N HCl) is reported as “dissolved instantly”, the “pH (24 h)” value (pH solubility in buffers; 0.1 N HCl) is reported as 1.27 and the solubility (pH solubility in buffers; 0.1 n hcl, 37 °C, dissolved instantly, estimated by adding 100 uL aliquots, read-out: solubility) is reported as > 10900 µg/mL. The “pH solubility, overall” value (pH solubility in buffers; buffers pH 1 to pH 6.8) was “highest solubility”, the “pH (24 h)” value (pH solubility in buffers; pH 2 (USP)) was 2.52 and the “pH (24 h)” value (pH solubility in buffers; pH 4.5 (USP)) was 3.92. For the same compound, the “pH (24 h)” value (pH solubility in buffers; pH 6.8 (USP)) was 3.54, the solubility at 2 h (pH solubility in buffers; [4]) was 3810 µg/mL and the solubility at 24 h (pH solubility in buffers; [4]) was 2460 µg/mL. It also gave a solubility at 2 h (pH solubility in buffers; [5]) of 150 µg/mL, a solubility at 24 h (pH solubility in buffers; [5]) of 120 µg/mL and a solubility at 2 h (pH solubility in buffers; [6]) of 370 µg/mL. The solubility at 24 h (pH solubility in buffers; [6]) was 330 µg/mL, the “moisture uptake (DVS)” value [1] was “about 0.06%” and the “pH (24 h)” value ([2]; FaSSIF pH 5.0 (so in the source), pH of solution at 24 h) was 4.60. The “pH (24 h)” value ([2]; FeSSIF pH 6.5 (so in the source), pH of solution at 24 h) was 3.35, the “pH (24 h)” value ([2]; SGF pH 1.2, pH of solution at 24 h) was 1.13 and the “kinetic solubility, overall” value ([2]; all media tested) was “highest solubility in all media tested”. For the same compound, the solubility at 10 min [2, 7] was 650 µg/mL, the solubility at 0.5 h [2, 7] was 310 µg/mL and the solubility at 1 h [2, 7] was 250 µg/mL. It also gave a solubility at 2 h [2, 7] of 200 µg/mL, a solubility at 4 h [2, 7] of 100 µg/mL and a solubility at 24 h [2, 7] of 120 µg/mL. The solubility at 10 min [2, 8] was 530 µg/mL, the solubility at 0.5 h [2, 8] was 860 µg/mL and the solubility at 1 h [2, 8] was 910 µg/mL. For the same compound, the solubility at 2 h [2, 8] was 990 µg/mL, the solubility at 4 h [2, 8] was 810 µg/mL and the solubility at 24 h [2, 8] was 20 µg/mL. The solubility ([2]; sgf, pH 1.2, SGF pH 1.2, 37 °C, dissolved instantly, from total volume of media added, read-out: solubility) was > 11100 µg/mL, the “dissolution in SGF” value ([2]; simulated gastric fluid (SGF)) was “dissolved instantly” and the “absolute bioavailability, comparison with other forms” value [3] was “higher than the measured bioavailability of the other forms of Compound 1”. For the same compound, the bioavailability ([3]; rat, plasma, po, vs historical IV AUCinf, read-out: Absolute % F) was 91% and the AUC(0-inf) ([3]; rat, plasma, po, fasted overnight) was 14200 ng·h/mL.
